Data published in PMC10458937, “Triose Phosphate Isomerase Structure-Based Virtual Screening and In Vitro Biological Activity of Natural Products as Leishmania mexicana Inhibitors” (Pharmaceutics, 2023).
Where two headings read alike, the source gives them in different places.

Assays:
[1] = tested on: L. mexicana MHOM/MX/2017/UABJO17FCQEPS promastigotes; experiment: In vitro leishmanicidal evaluation on promastigotes (MTT), strain FCQEPS; format: cell-based; details: 48 h, read-out: Leishmania mexicana IC50 (µM ± SD) FCQEPS
Protocol: (§1) The metabolic activity of the cells was determined using the method of 3-(4,5-Dimethylthiazol-2-yl)-2,5-diphenyltetrazolium bromide (MTT). The half-maximum inhibitory concentration (IC50) was determined using probit analysis. Three independent assays were each performed in triplicate. Biostat software was used to analyze the data for statistically significant data (p < 0.05).

[2] = tested on: L. mexicana MNYC/BZ/62/M379 promastigotes; experiment: In vitro leishmanicidal evaluation on promastigotes (MTT), strain M379; format: cell-based; details: read-out: Leishmania mexicana IC50 (µM ± SD) M379
Protocol: as §1

[3] = tested on: promastigote of both L. mexicana strains; experiment: In vitro leishmanicidal activity, promastigote of both L. mexicana strains (abstract); format: cell-based, Leishmania mexicana; details: rounded value of the abstract
Protocol: Promastigotes from the reference strain of L. mexicana (MNYC/BZ/62/M379) and the autochthonous isolate of L. mexicana (MHOM/MX/2017/UABJO17FCQEPS) were used in the in vitro studies. Parasites were preserved in RPMI 1640 supplemented with 10% fetal bovine serum (FBS), 100 U/mL penicillin, 100 ug/mL streptomycin, and glutamine (2 mM). The parasites, in their logarithmic growth phase (5 × 10^5 parasites/mL), were incubated in 96-well plates with the compounds under different concentrations (0.78–100 µM) dissolved in dimethyl sulfoxide (DMSO) in a final volume of 200 µL for 48 h at 26 °C. Parasites in the presence of DMSO (0.2%) were included as a negative control. […] The metabolic activity of the cells was determined using the method of 3-(4,5-Dimethylthiazol-2-yl)-2,5-diphenyltetrazolium bromide (MTT). The half-maximum inhibitory concentration (IC50) was determined using probit analysis. Three independent assays were each performed in triplicate. Biostat software was used to analyze the data for statistically significant data (p < 0.05).

J774.2 cell line = experiment: Cytotoxicity in murine macrophages (MTT); format: cell-based, mouse; details: 48 h, 37 °C, read-out: J774.2 Cell Line CC50 (µM ± SD)
Protocol: (§2) This assay was performed on mouse macrophages from the J774.2 cell line that were recloned from the original ascites and solid tumor J774.1 (according to the fabricant). The cells were cultured in RPMI medium supplemented with 10% SFB, […] penicillin, 100 ug/mL streptomycin, and glutamine (2 mM) at 37 °C and in a 5% CO2 atmosphere. The medium was changed at intervals of every 2 to 3 days. […] Cells in the presence of the maximum concentration of DMSO (0.2%) were included as a negative control. The metabolic activity of the cells was determined using the MTT method. The percentage of cell viability was calculated, and the mean cytotoxic concentration (CC50) was determined using probit analysis. Three independent assays were each performed in triplicate. The selectivity index (SI) was calculated for the promastigotes of L. mexicana and the autochthonous isolate (CC50/IC50).

[4] = Cytotoxicity in murine macrophages (MTT); format: cell-based, mouse; details: mouse, 37 °C, read-out: J774.2 Cell Line CC50 (µM ± SD)
Protocol: as §2

[5] = Leishmania mexicana, promastigotes, strain MHOM/MX/2017/UABJO17FCQEPS, 26 °C, MTT
[6] = Leishmania mexicana, promastigotes, strain MNYC/BZ/62/M379, 48 h, 26 °C, MTT

| Compound | IC50 [1, 5] [µM] | IC50 [2, 6] [µM] | CC50 (J774.2 cell line) [µM] | also measured |
| --- | --- | --- | --- | --- |
| Glucantime |  |  |  | IC50 ([1]; promastigotes, strain MHOM/MX/2017/UABJO17FCQEPS, 26 °C, MTT): 125 ± 11.6 µM; IC50 ([2]; promastigotes, strain MNYC/BZ/62/M379, 48 h, 26 °C, MTT): 134 ± 2.79 µM; IC50 [3]: 133 µM |
| CCc1cc2c(cc1CC)CC(NC[C@H](O)c1ccc(O)c3[nH]c(=O)ccc13)C2 [Compound S-8, indacaterol] | 56 ± 5.87 | 55.1 ± 2.34 | > 100 | IC50 ([3]; Leishmania mexicana): 55 µM |
| C[C@H]1[C@H](C)CC[C@]2(C(=O)O)CC[C@]3(C)C(=CC[C@@H]4[C@@]5(C)CC[C@H](O)C(C)(C)[C@@H]5CC[C@]43C)[C@H]12 [Compound B-3, ursolic acid] | 87.2 ± 7.05 | > 200 |  | CC50 at 48 h ([4]; J774.2 macrophage cells): 49.2 ± 5.53 µM |
| CNC(=O)c1cc(Oc2ccc(NC(=O)Nc3ccc(Cl)c(C(F)(F)F)c3)cc2)ccn1 [Compound S-7, sorafenib] |  |  |  | IC50 ([1]; Leishmania mexicana): 166 ± 18.1 µM; IC50 ([2]; Leishmania mexicana, 48 h): 24.9 ± 3.08 µM; CC50 at 48 h [4]: 64.9 ± 9.58 µM |
| CC1(C)[C@@H](O)CC[C@]2(C)[C@H]3C(=O)C=C4[C@@H]5C[C@@](C)(C(=O)O)CC[C@]5(C)CC[C@@]4(C)[C@]3(C)CC[C@@H]12 [Compound S-3, glycyrrhetinic acid] | 145 ± 12.1 | 44.2 ± 5.03 | > 100 |  |
